As a reminder, the IC50 is the point on the concentration scale where inhibition reaches its midpoint. Higher therefore signals weaker potency.

IC50 data for 20 molecules are collected here from patent US11919908B2, “Substituted pyrrolo[2,3-d]pyrimidine compounds as JAK2 V617F inhibitors” (Incyte Corporation, priority 2020, dated 2024).

The target of experiment [1] is T1, catalytic domain (JH1) of human JAK2 (Homo sapiens, UniProt O60674).
T1 construct: catalytic domain (JH1, amino acids 826-1132) of human JAK2; FLAG (N); purchased Carna Biosciences 08-445-20N; host or cells: baculovirus expression system
As to the kind of experiment: JAK2 LanthaScreen JH1 Binding Assay. The following applies: 50 nM Fluorescent JAK2-JH1 Tracer, 2 hours at 25° C. The essentials:
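TR-FRET tracer-displacement binding using N-terminal FLAG-tagged, biotinylated JH1 (aa 826-1132, baculovirus-expressed) at 1.5 nM, with 50 nM fluorescent tracer and 0.5 nM streptavidin-Tb. Buffer was 50 mM Tris pH 7.5, 10 mM MgCl2, 5 mM DTT, 2 h at 25° C. Non-specific binding used 2 mM ATP; IC50 came from four-parameter fits.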
For orientation: In TR-FRET formats the signal depends on donor and acceptor labels being close together.

For experiment [2], the target named is T2, pseudo-kinase domain (JH2) of human V617F mutant JAK2 (Homo sapiens, UniProt O60674, F794H/V617F/W659A/W777A).
T2 construct: pseudo-kinase domain (JH2, amino-acids 536-812 with 3 surface mutations W659A, W777A, F794H); His (C); purchased BPS Bioscience 79498; host or cells: baculovirus expression system
Kind of experiment: JAK2 LanthaScreen JH2-V617F Binding Assay. The following applies: 50 nM Fluorescent JAK2-JH2 Tracer, 1 hour at 25° C. The essentials:
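Biotinylated His-Avi-tagged JH2 domain (aa 536-812, V617F plus 3 surface mutations; 0.26 nM), baculovirus-expressed, incubated 1 hour at 25° C with compound, 50 nM fluorescent JH2 tracer and 0.25 nM streptavidin-Tb in pH 7.5 Tris buffer. Tracer displacement read by LanthaScreen TR-FRET; non-specific binding with 2 mM ATP; four-parameter IC50.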

Experiment [3] addresses T3, pseudo-kinase domain (JH2) of human Wild Type JAK2 (Homo sapiens, UniProt O60674, F794H/W659A/W777A).
T3 construct: pseudo-kinase domain (JH2, amino-acids 536-812 with 3 surface mutations W659A, W777A, F794H); His (C); purchased BPS Bioscience 79463; host or cells: baculovirus expression system
As to the kind of experiment: JAK2 LanthaScreen JH2-WT Binding Assay. Particulars: 50 nM Fluorescent JAK2-JH2 Tracer, 1 hour at 25° C. The essentials: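 Biotinylated His-Avi-tagged JAK2 JH2 (aa 536-812, three surface mutations; 0.145 nM) competed with 50 nM fluorescent tracer, using 0.25 nM streptavidin-Tb, in pH 7.5 Tris buffer for 1 h at 25° C.; non-specific binding was set with 2 mM ATP. TR-FRET read; IC50 from four-parameter fit.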

T2 sequence (O60674 536-812 V617F/W659A/W777A/F794H): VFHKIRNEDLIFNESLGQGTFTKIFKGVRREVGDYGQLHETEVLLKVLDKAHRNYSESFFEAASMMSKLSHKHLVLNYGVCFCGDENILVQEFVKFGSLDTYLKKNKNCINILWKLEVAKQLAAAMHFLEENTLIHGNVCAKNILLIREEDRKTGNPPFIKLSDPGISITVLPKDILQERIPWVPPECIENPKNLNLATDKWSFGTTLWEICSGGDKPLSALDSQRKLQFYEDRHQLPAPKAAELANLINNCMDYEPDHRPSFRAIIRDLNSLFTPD
T1 sequence (O60674 826-1132): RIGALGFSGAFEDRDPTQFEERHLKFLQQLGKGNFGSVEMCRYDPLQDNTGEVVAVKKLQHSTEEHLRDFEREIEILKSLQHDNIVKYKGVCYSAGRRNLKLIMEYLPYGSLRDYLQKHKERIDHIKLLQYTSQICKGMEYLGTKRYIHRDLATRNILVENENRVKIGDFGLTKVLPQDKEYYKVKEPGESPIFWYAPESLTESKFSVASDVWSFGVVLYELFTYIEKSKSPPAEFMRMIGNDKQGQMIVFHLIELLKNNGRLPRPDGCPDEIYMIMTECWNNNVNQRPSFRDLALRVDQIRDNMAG
T3 sequence (O60674 536-812 W659A/W777A/F794H): as the sequence (O60674 536-812 V617F/W659A/W777A/F794H) above, with F82V counted along it

As to `CN(C)S(=O)(=O)c1ccc(-c2[nH]c3nc(N)[nH]c(=O)c3c2-c2cnn(C3CCS(=O)(=O)C3)c2)cc1` (stereo not drawn) [Example 36, 4-(2-Amino-5-(1-(1,1-dioxidotetrahydrothiophen-3-yl)-1H-pyrazol-4-yl)-4-oxo-4,7-dihydro-3H-pyrrolo[2,3-d]pyrimidin-6-yl)-N,N-dimethylbenzene sulfonamide], the half-inhibitory concentration (IC50) in experiment [1], in experiment [2] and in experiment [3] was 1000 to 2500 nM throughout.

For `CN(C)S(=O)(=O)c1ccc(-c2[nH]c3nc(N)[nH]c(=O)c3c2-c2cccc3c2OCO3)cc1` [Example 44, 4-(2-Amino-5-(benzo[d] [1,3]dioxol-4-yl)-4-oxo-4,7-dihydro-3H-pyrrolo[2,3-d]pyrimidin-6-yl)-N,N-dimethylbenzene sulfonamide], the IC50 in experiment [1] was greater than 2500 nM; in experiment [2], 100 to 500 nM; in experiment [3], 100 to 500 nM.

As for `COc1ccccc1-c1c(-c2ccc(C(=O)N3CCOCC3)cc2)[nH]c2nc(N)[nH]c(=O)c12` [Example 54, 2-Amino-5-(2-methoxyphenyl)-6-(4-(morpholine-4-carbonyl)phenyl)-3,7-dihydro-4H-pyrrolo[2,3-d]pyrimidin-4-one], the values for the IC50 in experiment [1], in experiment [2] and in experiment [3] were greater than 2500 nM, 500 to 1000 nM and 500 to 1000 nM, respectively.

On to `CN(C)S(=O)(=O)c1ccc(-c2[nH]c3nc(N)[nH]c(=O)c3c2-c2cccc3ccoc23)cc1` [Example 3, 4-(2-Amino-5-(benzofuran-7-yl)-4-oxo-4,7-dihydro-3H-pyrrolo[2,3-d]pyrimidin-6-yl)-N,N-dimethylbenzenesulfonamide], for which the half-maximal inhibitory concentration (IC50) in experiment [1] is greater than 2500 nM; in experiment [2], 100 to 500 nM; in experiment [3] it was 100 to 500 nM.

As to `CN(C)S(=O)(=O)c1ccc(-c2[nH]c3nc(N)[nH]c(=O)c3c2-c2cnn(Cc3ccc(C#N)cc3)c2)cc1` [Example 31, 4-(2-Amino-5-(1-(4-cyanobenzyl)-1H-pyrazol-4-yl)-4-oxo-4,7-dihydro-3H-pyrrolo[2,3-d]pyrimidin-6-yl)-N,N-dimethylbenzene sulfonamide], the IC50 in experiment [1], in experiment [2] and in experiment [3] was 1000 to 2500 nM in each case.

In the case of `Nc1nc2[nH]c(-c3ccccc3)c(-c3ccccc3OC(F)F)c2c(=O)[nH]1` [Example 1, 2-Amino-5-(2-(difluoromethoxy)phenyl)-6-phenyl-3,7-dihydro-4H-pyrrolo[2,3-d]pyrimidin-4-one], the 50% inhibitory concentration (IC50) in experiment [1], in experiment [2] and in experiment [3] was greater than 2500 nM in each case.

Take `COc1cc(C(N)=O)ccc1-c1c(-c2ccc(S(=O)(=O)N(C)C)cc2)[nH]c2nc(N)[nH]c(=O)c12` [Example 23, 4-(2-Amino-6-(4-(N,N-dimethylsulfamoyl)phenyl)-4-oxo-4,7-dihydro-3H-pyrrolo[2,3-d]pyrimidin-5-yl)-3-methoxy-benzamide]: the half-maximal inhibitory concentration (IC50) in experiment [1] is greater than 2500 nM; in experiment [2], 500 to 1000 nM; in experiment [3] it was 500 to 1000 nM.

As to `COc1ncccc1-c1c(-c2ccc(S(=O)(=O)N(C)C)cc2)[nH]c2nc(N)[nH]c(=O)c12` [Example 28, 4-(2-Amino-5-(2-methoxy-pyridin-3-yl)-4-oxo-4,7-dihydro-3H-pyrrolo[2,3-d]pyrimidin-6-yl)-N,N-dimethylbenzene sulfonamide], the IC50 in experiment [1] is greater than 2500 nM; in experiment [2], 1000 to 2500 nM; in experiment [3], 1000 to 2500 nM.

Regarding `COc1ccccc1-c1c(-c2ccc(S(C)(=O)=O)cc2)[nH]c2nc(N)[nH]c(=O)c12` [Example 62, 2-Amino-5-(2-methoxyphenyl)-6-(4-(methylsulfonyl)phenyl)-3,7-dihydro-4H-pyrrolo [2,3-d]pyrimidin-4-one], the results for the half-inhibitory concentration (IC50) in experiment [1], in experiment [2] and in experiment [3] were greater than 2500 nM, 500 to 1000 nM and 1000 to 2500 nM, respectively.

On to `Cc1cccc(-c2c(-c3ccc(S(=O)(=O)N(C)C)cc3)[nH]c3nc(N)[nH]c(=O)c23)c1` [Example 2, 4-(2-Amino-4-oxo-5-(3-tolyl)-4,7-dihydro-3H-pyrrolo[2,3-d]pyrimidin-6-yl)-N,N-dimethylbenzenesulfonamide], for which the 50% inhibitory concentration (IC50) is 1000 to 2500 nM in experiment [1], 500 to 1000 nM in experiment [2] and 500 to 1000 nM in experiment [3].

On to `CN(C)S(=O)(=O)c1ccc(-c2[nH]c3nc(N)[nH]c(=O)c3c2-c2cccc3c2cnn3C)cc1` [Example 16, 4-(2-Amino-5-(1-methyl-1H-indazol-4-yl)-4-oxo-4,7-dihydro-3H-pyrrolo[2,3-d]pyrimidin-6-yl)-N,N-dimethylbenzene sulfonamide], for which the concentration for half-maximal inhibition (IC50) in experiment [1], in experiment [2] and in experiment [3] was greater than 2500 nM in each case.

For the molecule `COc1cccc(-c2c(-c3ccc(S(=O)(=O)N(C)C)cc3)[nH]c3nc(N)[nH]c(=O)c23)c1OC` [Example 43, 4-(2-Amino-5-(2,3-dimethoxyphenyl)-4-oxo-4,7-dihydro-3H-pyrrolo[2,3-d]pyrimidin-6-yl)-N,N-dimethylbenzene sulfonamide], the concentration for half-maximal inhibition (IC50) in experiment [1] is greater than 2500 nM; in experiment [2], 1000 to 2500 nM; in experiment [3] it was 1000 to 2500 nM.

On to `COc1ccc(Cl)cc1-c1c(-c2ccc(S(=O)(=O)N(C)C)cc2)[nH]c2nc(N)[nH]c(=O)c12` [Example 27, 4-(2-Amino-5-(5-chloro-2-methoxyphenyl)-4-oxo-4,7-dihydro-3H-pyrrolo[2,3-d]pyrimidin-6-yl)-N,N-dimethylbenzene sulfonamide], for which the IC50 is greater than 2500 nM in experiment [1], greater than 2500 nM in experiment [2] and 1000 to 2500 nM in experiment [3].

Take `COc1c(Cl)cccc1-c1c(-c2ccc(S(=O)(=O)N(C)C)cc2)[nH]c2nc(N)[nH]c(=O)c12` [Example 40, 4-(2-Amino-5-(3-chloro-2-methoxyphenyl)-4-oxo-4,7-dihydro-3H-pyrrolo[2,3-d]pyrimidin-6-yl)-N,N-dimethylbenzene sulfonamide]: the IC50 in experiment [1], in experiment [2] and in experiment [3] was greater than 2500 nM each time.

Regarding `Cc1ccc(F)c(-c2c(-c3ccc(S(=O)(=O)N(C)C)cc3)[nH]c3nc(N)[nH]c(=O)c23)c1` [Example 69, 4-(2-Amino-5-(2-fluoro-5-methylphenyl)-4-oxo-4,7-dihydro-3H-pyrrolo[2,3-d]pyrimidin-6-yl)-N,N-dimethylbenzenesulfonamide], the figures for the IC50 in experiment [1], in experiment [2] and in experiment [3] were 1000 to 2500 nM, 100 to 500 nM and 100 to 500 nM, respectively.

For `CC(C)c1cccc(-c2c(-c3ccc(S(=O)(=O)N(C)C)cc3)[nH]c3nc(N)[nH]c(=O)c23)c1` [Example 6, 4-(2-Amino-5-(3-isopropylphenyl)-4-oxo-4,7-dihydro-3H-pyrrolo [2,3-d]pyrimidin-6-yl)-N,N-dimethylbenzene sulfonamide], the 50% inhibitory concentration (IC50) in experiment [1], in experiment [2] and in experiment [3] was greater than 2500 nM throughout.

Consider `CN(C)S(=O)(=O)c1ccc(-c2[nH]c3nc(N)[nH]c(=O)c3c2-c2cccc3c2OCCO3)cc1` [Example 7, 4-(2-Amino-5-(2,3-dihydrobenzo[b][1,4]dioxin-5-yl)-4-oxo-4,7-dihydro-3H-pyrrolo [2,3-d]pyrimidin-6-yl)-N,N-dimethylbenzene sulfonamide], for which the IC50 is greater than 2500 nM in experiment [1], 500 to 1000 nM in experiment [2] and 500 to 1000 nM in experiment [3].

Take `CN(C)S(=O)(=O)c1ccc(-c2[nH]c3nc(N)[nH]c(=O)c3c2-c2cnn(C3CCOCC3)c2)cc1` [Example 37, 4-(2-Amino-4-oxo-5-(1-(tetrahydro-2H-pyran-4-yl)-1H-pyrazol-4-yl)-4,7-dihydro-3H-pyrrolo[2,3-d]pyrimidin-6-yl)-N,N-dimethylbenzene sulfonamide]: the results for the half-maximal inhibitory concentration (IC50) in experiment [1], in experiment [2] and in experiment [3] were greater than 2500 nM, 1000 to 2500 nM and greater than 2500 nM, respectively.

As to `CCOc1ccccc1-c1c(-c2ccc(S(=O)(=O)N(C)C)cc2)[nH]c2nc(N)[nH]c(=O)c12` [Example 70, 4-(2-Amino-5-(2-ethoxyphenyl)-4-oxo-4,7-dihydro-3H-pyrrolo[2,3-d]pyrimidin-6-yl)-N,N-dimethylbenzenesulfonamide], the IC50 is greater than 2500 nM in experiment [1], 1000 to 2500 nM in experiment [2] and 1000 to 2500 nM in experiment [3].

Take `CN(C)S(=O)(=O)c1ccc(-c2[nH]c3nc(N)[nH]c(=O)c3c2-c2cccc3c2OCC(=O)N3)cc1` [Example 48, 4-(2-Amino-4-oxo-5-(3-oxo-3,4-dihydro-2H-benzo[b][1,4]oxazin-8-yl)-4,7-dihydro-3H-pyrrolo[2,3-d]pyrimidin-6-yl)-N,N-dimethylbenzenesulfonamide]: the IC50 in experiment [1] is greater than 2500 nM; in experiment [2], 100 to 500 nM; in experiment [3] it was 100 to 500 nM.
